Results: ChEMBL document CHEMBL6153037, “Developing dual-responsive quinolinium prodrugs of 8-hydroxyquinoline by harnessing the dual chelating sites” (Eur J Med Chem, 2025)
pIC50: −log10 of the molar value. The source made the active and inactive calls. No cut-off for these calls is given here.

Columns and labels:
MDA-MB-231 [1] = assay: Cytotoxicity against LPS-treated human MDA-MB-231 cells incubated for 48 hrs by MTT assay; assay type: functional, cell-based
MDA-MB-231 [2] = assay: Antitumor activity against human MDA-MB-231 cells xenografted in BALB/c nude mouse assessed as tumor size at 20 mg/kg, iv administered every two days for 21 days (reference value: 1940 mm3); assay type: functional; details: time 21 day
MDA-MB-231 [3] = assay: Induction of apoptosis in human MDA-MB-231 cells assessed as viable cells at 0.4 uM incubated for 24 hrs by Annexin V-FITC/PI staining based flow cytometry (reference value: 86.2 %); assay type: functional; details: read-out: Activity
MDA-MB-231 [4] = assay: Anti-migration activity in human MDA-MB-231 cells at 0.4 uM incubated for 48 hrs by wound healing assay (reference value: 65.2 %); assay type: functional
MDA-MB-231 [5] = assay: Induction of apoptosis in human MDA-MB-231 cells assessed as early apoptotic cells at 0.4 uM incubated for 24 hrs by Annexin V-FITC/PI staining based flow cytometry (reference value: 7.39 %); assay type: functional
MCF-10A [6] = assay: Inhibition of mitochondrial membrane potential in human MCF-10A cells assessed as decrease in ATP level at 0.4 to 0.8 uM incubated for 24 hrs by luminescence based analysis; assay type: toxicity, cell-based; details: dose 0.4-0.8 µM
MDA-MB-231 [7] = assay: Induction of apoptosis in human MDA-MB-231 cells assessed as late apoptotic cells at 1.2 uM incubated for 24 hrs by Annexin V-FITC/PI staining based flow cytometry (reference value: 5.81 %); assay type: functional
[8] = Induction of apoptosis in human MCF-10A cells assessed as viable cells at 0.8 uM incubated for 24 hrs by Annexin V-FITC/PI staining based flow cytometry (reference value: 92.5 %); assay type: toxicity, cell-based; details: read-out: Activity
MDA-MB-231 [9] = assay: Induction of cell cycle arrest in human MDA-MB-231 cells assessed as accumulation at G0/G1 phase at 0.8 uM by PI staining based flow cytometry (reference value: 64.6 %); assay type: functional
[10] = Prodrug conversion in PBS at pH 7.4 containing H2O2 assessed as 4-hydroxybenzyl alcohol release by measuring retention time at 50 uM measured after 15 mins by HPLC analysis; assay type: ADME; details: buffer, pH 7.4, 0.25 h
MDA-MB-231 [11] = assay: Antitumor activity against human MDA-MB-231 cells assessed as reduction in sphere volume incubated for 6 hrs followed by medium replacement without compound measured after 6 days by microscopic analysis; assay type: functional, cell-based
MDA-MB-231 [12] = assay: Induction of apoptosis in human MDA-MB-231 cells assessed as necrotic cells at 0.4 uM incubated for 24 hrs by Annexin V-FITC/PI staining based flow cytometry (reference value: 0.59 %); assay type: functional
MCF-10A [13] = assay: Induction of apoptosis in human MCF-10A cells assessed as early apoptotic cells at 0.8 uM incubated for 24 hrs by Annexin V-FITC/PI staining based flow cytometry (reference value: 2.96 %); assay type: toxicity, cell-based
MDA-MB-231 [14] = assay: Induction of apoptosis in human MDA-MB-231 cells assessed as necrotic cells at 0.8 uM incubated for 24 hrs by Annexin V-FITC/PI staining based flow cytometry (reference value: 0.59 %); assay type: functional
MDA-MB-231 [15] = assay: Induction of cell cycle arrest in human MDA-MB-231 cells assessed as accumulation at G0/G1 phase at 0.4 uM by PI staining based flow cytometry (reference value: 64.6 %); assay type: functional
MDA-MB-231 [16] = assay: Inhibition of DNA synthesis in human MDA-MB-231 cells by EdU incorporation assay; assay type: functional, cell-based
MDA-MB-231 [17] = assay: Induction of apoptosis in human MDA-MB-231 cells assessed as necrotic cells at 1.2 uM incubated for 24 hrs by Annexin V-FITC/PI staining based flow cytometry (reference value: 0.59 %); assay type: functional
MCF-10A [18] = assay: Induction of apoptosis in human MCF-10A cells assessed as late apoptotic cells at 0.8 uM incubated for 24 hrs by Annexin V-FITC/PI staining based flow cytometry (reference value: 3.13 %); assay type: toxicity, cell-based
MDA-MB-231 [19] = assay: Inhibition of mitochondrial membrane potential in human MDA-MB-231 cells assessed as decrease in ATP level at 0.4 to 0.8 uM incubated for 24 hrs by luminescence based analysis; assay type: functional, cell-based; details: dose 0.4-0.8 µM
[20] = Cytotoxicity against human MCF-10A cells assessed as cell survival at 10 uM incubated for 48 hrs by MTT assay relative to control; assay type: toxicity, cell-based; details: read-out: Survival
MDA-MB-231 [21] = assay: Inhibition of mitochondrial membrane potential in human MDA-MB-231 cells assessed as increase in intracellular calcium level at 0.4 to 0.8 uM incubated for 24 hrs by Fluo-4 AM dye based analysis; assay type: functional, cell-based; details: dose 0.4-0.8 µM
MCF-10A [22] = assay: Induction of apoptosis in human MCF-10A cells assessed as necrotic cells at 1.2 uM incubated for 24 hrs by Annexin V-FITC/PI staining based flow cytometry (reference value: 1.38 %); assay type: toxicity, cell-based
MCF-10A [23] = assay: Induction of apoptosis in human MCF-10A cells assessed as necrotic cells at 0.8 uM incubated for 24 hrs by Annexin V-FITC/PI staining based flow cytometry (reference value: 1.38 %); assay type: toxicity, cell-based
MDA-MB-231 [24] = assay: Induction of apoptosis in human MDA-MB-231 cells assessed as viable cells at 1.2 uM incubated for 24 hrs by Annexin V-FITC/PI staining based flow cytometry (reference value: 86.2 %); assay type: functional; details: read-out: Activity
OVCAR-3 = assay: Cytotoxicity against CuCl2-treated human OVCAR-3 cells assessed as inhibition of cell viability incubated for 48 hrs by MTT assay; assay type: functional, cell-based; details: OVCAR-3, 48 h
MDA-MB-231 [25] = assay: Cytotoxicity against CuCl2-treated human MDA-MB-231 cells assessed as inhibition of cell viability incubated for 48 hrs by MTT assay; assay type: functional, cell-based; details: MDA-MB-231, 48 h
[26] = Induction of apoptosis in human MCF-10A cells assessed as viable cells at 0.4 uM incubated for 24 hrs by Annexin V-FITC/PI staining based flow cytometry (reference value: 92.5 %); assay type: toxicity, cell-based; details: read-out: Activity
MDA-MB-231 [27] = assay: Anti-migration activity in human MDA-MB-231 cells at 0.4 uM incubated for 24 hrs by wound healing assay (reference value: 45.4 %); assay type: functional
MCF-10A [28] = assay: Cytotoxicity against human MCF-10A cells assessed as increase in red fluorescence at 0.4 to 0.8 uM by Calcein AM/PI staining based analysis; assay type: toxicity, cell-based; details: dose 0.4-0.8 µM
MDA-MB-231 [29] = assay: Induction of apoptosis in human MDA-MB-231 cells assessed as late apoptotic cells at 0.4 uM incubated for 24 hrs by Annexin V-FITC/PI staining based flow cytometry (reference value: 5.81 %); assay type: functional
MDA-MB-231 [30] = assay: Inhibition of mitochondrial membrane potential in human MDA-MB-231 cells assessed as increase in green fluorescence at 0.8 uM incubated for 24 hrs by JC-1 dye based analysis; assay type: functional, cell-based
[31] = Prodrug conversion in PBS at pH 7.4 containing H2O2 assessed as 8-HQ release by measuring retention time at 50 uM measured after 15 mins by HPLC analysis; assay type: ADME; details: buffer, pH 7.4, 0.25 h
MCF-10A [32] = assay: Inhibition of mitochondrial membrane potential in human MCF-10A cells assessed as increase in intracellular calcium level at 0.4 to 0.8 uM incubated for 24 hrs by Fluo-4 AM dye based analysis; assay type: toxicity, cell-based; details: dose 0.4-0.8 µM
MDA-MB-231 [33] = assay: Induction of apoptosis in human MDA-MB-231 cells assessed as late apoptotic cells at 0.8 uM incubated for 24 hrs by Annexin V-FITC/PI staining based flow cytometry (reference value: 5.81 %); assay type: functional

In the case of `CC1(C)OB(c2ccc(C[n+]3cccc4cccc(O)c43)cc2)OC1(C)C.[Br-]`, the Activity (MDA-MB-231 [1]) was “Active”, the Activity (MDA-MB-231 [2]) was 710 mm3 and the viability at 0.4 µM (MDA-MB-231 [3]) was 71.2%. The Activity (MDA-MB-231 [4]) was 34.6%, the Activity (MDA-MB-231 [5]) was 14.2% and the Activity (MCF-10A [6]) was “Non-toxic”. It also gave an Activity (MDA-MB-231 [7]) of 16.4%, a viability at 24 h, 0.8 µM [8] of 93.7% and an Activity (MDA-MB-231 [9]) of 74.2%. The Retention_time [10] was 10.2 min, the Activity (MDA-MB-231 [11]) was “Active” and the Activity (MDA-MB-231 [12]) was 1.47%. The Activity (MCF-10A [13]) was 2.18%, the Activity (MDA-MB-231 [14]) was 7.08% and the Activity (MDA-MB-231 [15]) was 68.1%. The inhibition (MDA-MB-231 [16]) was “Active”, the Activity (MDA-MB-231 [17]) was 6.03% and the Activity (MCF-10A [18]) was 3.77%. The inhibition (MDA-MB-231 [19]) was “Active”, the viability at 48 h, 10 µM [20] was 86% and the inhibition (MDA-MB-231 [21]) was “Active”. The Activity (MCF-10A [22]) was 0.84%, the Activity (MCF-10A [23]) was 0.36% and the viability at 1.2 µM (MDA-MB-231 [24]) was 6.61%. It also gave a pIC50 (OVCAR-3) of 5.18, a pIC50 (MDA-MB-231 [25]) of 6.08 and a viability at 24 h, 0.4 µM [26] of 94.9%. For the same compound, the Activity (MDA-MB-231 [27]) was 16.5%, the Activity (MCF-10A [28]) was “Non-toxic” and the Activity (MDA-MB-231 [29]) was 13.2%. For the same compound, the inhibition (MDA-MB-231 [30]) was “Active”, the Retention_time [31] was 2.8 min and the Activity (MCF-10A [32]) was “Non-toxic”. For the same compound, the Activity (MDA-MB-231 [33]) was 27.9%.
